According to PubChem BioAssay (NCI):
“And” between values parts separate entries of the source, which are not always exact repeats. Equal entries are not always repeated.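 Following 48 hours of exposure in 96-well plates, responses at five concentrations were used to interpolate endpoints linearly. GI50 marks 50% less growth. At the TGI there is no net growth.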

Tests used:
Assay in all cases: NCI tumour cell line growth inhibition, 48 h
MDA-N = tested on: MDA-N
KM20L2 colon = tested on: KM20L2 colon
LXFL 529 NSCLC = tested on: LXFL 529 NSCLC
HOP-18 NSCLC = tested on: HOP-18 NSCLC
M19-MEL melanoma = tested on: M19-MEL melanoma
XF 498 CNS = tested on: XF 498 CNS
DMS 273 small cell lung = tested on: DMS 273 small cell lung
SNB-78 CNS = tested on: SNB-78 CNS
RXF-631 renal = tested on: RXF-631 renal

Row | SMILES | TGI (MDA-N) | TGI (KM20L2 colon) [µM] | TGI (LXFL 529 NSCLC) [µM] | TGI (HOP-18 NSCLC) [µM] | TGI (M19-MEL melanoma) [µM] | TGI (XF 498 CNS) [µM] | TGI (DMS 273 small cell lung) [µM] | TGI (SNB-78 CNS) [µM] | also measured
1 | CN(C)CCNC(=O)Cn1cc([N+](=O)[O-])c(=O)c2ccccc21 | > 100 µM | – | – | – | – | – | – | – | –
2 | Cc1cnc(/C=N\NC(N)=S)c2cccc(N)c12 | > 100 µM | – | – | – | – | – | – | – | –
3 | C=CC(C)(O)/C=C/C=C(\C)C(CC1OC1(C)C)OC(=O)/C(C)=C\C (stereo not drawn) | > 100 µM | – | – | – | – | – | – | – | –
4 | COc1ccc(N=Nc2c(-c3ccccc3)nn(C(=O)CC(=O)Nc3cccc(Cl)c3)c2-c2ccccc2)cc1 | – | > 100 | > 100 | > 100 | > 100 | > 100 | > 100 | – | –
5 | O=c1c2ccccc2n2n1CC(O)C2 (stereo not drawn) | – | > 100 | – | > 100 | > 100 | > 100 | > 100 | > 100 | –
6 | C1C[S][Ge]2([S]CCO1)[S]CCOCC[S]2 | – | – | > 100 | – | > 100 | > 100 | > 100 | > 100 | GI50 (LXFL 529 NSCLC): > 100 µM; GI50 (SNB-78 CNS): > 100 µM; GI50 (RXF-631 renal): > 100 µM; TGI (RXF-631 renal): > 100 µM; GI50 (M19-MEL melanoma): > 100 µM; GI50 (XF 498 CNS): > 100 µM; GI50 (DMS 273 small cell lung): > 100 µM
7 | O=C(c1ccccc1)c1ccc(OCCOc2ccc(Nc3ccccc3)cc2)cc1 | – | > 100 | > 100 | > 100 | > 100 | 48.4 | > 100 | > 100 | TGI (RXF-631 renal): 82.8 µM
8 | C/C(=N\N=C(\[Se])N1CCN(c2ccccn2)CC1)c1ccccn1 | 21 µM | – | – | – | – | – | – | – | GI50 (MDA-N): 0.424 µM
9 | O=S(=O)(O)c1ccc(-c2nnc(-c3ccccn3)nc2-c2ccc(S(=O)(=O)O)o2)o1 | > 100 µM | – | – | – | – | – | – | – | –
10 | CC/C(=C(/CC)c1ccc([O-])cc1)c1ccc([O-])cc1.CC/C(=C(\CC)c1ccc([O-])cc1)c1ccc([O-])cc1.O=C([CH-]C(=O)c1ccccc1)c1ccccc1.O=C([CH-]C(=O)c1ccccc1)c1ccccc1.O=C([CH-]C(=O)c1ccccc1)c1ccccc1.O=C([CH-]C(=O)c1ccccc1)c1ccccc1.[Ti+4].[Ti+4] | – | 77.8 | – | > 100 | – | – | > 100 | > 100 | GI50 (KM20L2 colon): 29.5 µM; GI50 (SNB-78 CNS): 72.4 µM; GI50 (HOP-18 NSCLC): 83.4 µM; GI50 (DMS 273 small cell lung): 28.7 µM
11 | CC(=O)c1cccc(NC(=O)C(=O)C(C2OC(=O)c3ccccc32)[N+](=O)[O-])c1 (stereo not drawn) | – | > 100 | > 100 | – | > 100 | > 100 | – | > 100 | TGI (RXF-631 renal): > 100 µM
12 | O=C(O)Cc1cccc2c1Oc1ccccc1S2 | – | > 100 | > 100 | – | > 100 | – | > 100 | > 100 | –
13 | c1ccc(-c2cc(C3CO3)c3ccccc3n2)cc1 (stereo not drawn) | 39.4 µM | – | – | – | – | – | – | – | –
14 | O=c1cccccc1NCCCCCCNc1cccccc1=O | – | > 100 | > 100 | > 100 | > 100 | – | > 100 | > 100 | TGI (RXF-631 renal): > 100 µM
15 | CCSC1(SCC)CC(Cc2ccc(OC)cc2)N(C=NC(C)(C)C)C1 (stereo not drawn) | – | 56.9 | 93.6 | > 100 | 97.7 | 38.9 | > 100 | > 100 | –
16 | CCN1C(NN)=NS(=O)(=O)c2ccccc21 | > 100 µM | – | – | – | – | – | – | – | –
17 | O=C(O)CCC(=O)c1ccc2ccc3cccc4ccc1c2c34 | > 100 µM | – | – | – | – | – | – | – | –
18 | C=C(C)C1CC2(C)C(C)CC(OC(=O)/C(C)=C\C)CC2C(OC(=O)/C(C)=C\C)C1O (stereo not drawn) | > 100 µM | – | – | – | – | – | – | – | –
19 | COC1CCC(O)C(/C=C/[N+](=O)[O-])C1 (stereo not drawn) | 5.56 µM | – | – | – | – | – | – | – | –
20 | CC(=O)c1c(C)n(C)c2c1nnc1ccccc12 | > 100 µM | – | – | – | – | – | – | – | –
21 | O=C([O][Hg][CH2]C1COC([CH2][Hg][O]C(=O)c2ccccc2)CO1)c1ccccc1 (stereo not drawn) | 25.5 µM and 11.7 µM | 32.7 | 2.86 | 23.5 | 22.9 | 31.6 | 9.83 | 32.6 | GI50 (KM20L2 colon): 17.9 µM; GI50 (MDA-N): 12.5 µM and 3 µM; GI50 (LXFL 529 NSCLC): 1.53 µM; GI50 (SNB-78 CNS): 12.2 µM; GI50 (HOP-18 NSCLC): 10.8 µM; GI50 (M19-MEL melanoma): 9.67 µM; GI50 (XF 498 CNS): 17.7 µM; GI50 (DMS 273 small cell lung): 4.51 µM
22 | CN[C@@H](C)[C@@H](N)c1ccccc1 | – | – | > 100 | > 100 | – | – | > 100 | > 100 | TGI (RXF-631 renal): > 100 µM
